Here are results for 14 molecules from PubChem BioAssay (NCI).

Holding throughout (experiment): DTP human tumour cell line panel, 48 h
Assay [1] deals with BT-549 breast.
Assay [2] deals with HCC-2998 colon.
Assay [3] relates to HOP-62 NSCLC.
In assay [4] the test system is HOP-92 NSCLC.
Assay [5] has as its system MDA-MB-231 breast.
Assay [6] deals with SF-539 CNS.
The subject of assay [7] is DLD-1 colon.
In assay [8] the test system is DMS 114 small cell lung.
Assay [9] concerns SNB-78 CNS.
Assay [10] has as its system XF 498 CNS.

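Following 48 hours of exposure in 96-well plates, responses at five concentrations were used to interpolate endpoints linearly. GI50 = concentration required for 50% inhibition of growth. TGI: total growth inhibition.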 Some results are limits rather than exact numbers.

Usually GI50 stands for the concentration at which growth is held to half of that of the control. A word on the TGI: it is the concentration giving total growth inhibition. High values mean lower sensitivity of the cells, low ones greater sensitivity of the cells. As for `NC(=O)c1cc(Cl)ccc1NC(=O)/C=C/c1ccccc1`, the GI50 in [1] is 4.66 µM; in [2], 0.487 µM; in assay [3] it was 7.79 µM; in assay [4], 9.88 µM; in assay [5], 2.6 µM; in assay [6], 2.05 µM. Moreover, the concentration for total growth inhibition (TGI) in [1] is more than 100 µM; in [2], 2.79 µM; in assay [3], more than 41.6 µM; in [4], more than 43 µM; in [5], more than 100 µM; in assay [6], 5.53 µM.
For `CN(C)CCNc1ccc(CO)c2oc3ccc(O)cc3c(=O)c12`, the TGI came out at 28.4 µM in assay [1]; 27.9 µM in assay [2]; 27.3 µM in assay [3]; 33.4 µM in assay [4]; 37.7 µM in [5]; 25.1 µM in [6].
Regarding `C/C(=N\Nc1ccc(Cl)cn1)c1ccc2ccccc2n1`, the GI50 in assay [1] is 2.62 µM; in assay [2] it was 3.23 µM; in [3] it was 2.83 µM; in assay [4], 2.25 µM; in [5], 3.36 µM; in assay [6] it was 2.57 µM. The TGI is more than 100 µM in assay [1]; more than 100 µM in assay [2]; more than 100 µM in assay [3]; more than 100 µM in [4]; more than 100 µM in assay [5]; 27.6 µM in assay [6].
On to `Cc1cc(C)c(NC(=O)c2sc3nc4c(cc3c2N)C(=O)CCC4)c(C)c1`, for which the GI50 is 7.29 µM in assay [1]; 3.07 µM in assay [2]; 4.56 µM in assay [3]; 0.114 µM in assay [4]; 7.26 µM in [5]; 2.59 µM in assay [6]. Besides, the concentration for total growth inhibition (TGI) was more than 35.4 µM in assay [1]; more than 78.2 µM in assay [2]; more than 100 µM in assay [3]; 32.1 µM in [4]; more than 100 µM in assay [5]; more than 30.6 µM in assay [6].
For the molecule `OCC1OC(n2cnc3c2NC=NC[C@H]3O)C(Cl)C1O` (some centres not stated), the TGI in assay [1], in assay [2], in [3], in [4], in assay [5] and in assay [6] was more than 100 µM throughout.
In the case of `Nc1ccccc1/C(O)=C1/CCOC1=O`, the TGI in [7], in assay [8], in assay [3], in [4], in assay [9] and in [10] was more than 100 µM in each case.
For the molecule `c1cnn(CN(Cn2cccn2)Cn2cccn2)c1`, the TGI in [7], in [8], in assay [3], in assay [4], in assay [6] and in [9] was more than 100 µM throughout. Moreover, the TGI in assay [10] was more than 100 µM.
Consider `COc1ccc(/C=C/c2c(C(=O)/C=C/c3ccccc3)c(C)nc3ccccc23)cc1`, for which the GI50 was 2 µM in assay [1]; 1.88 µM in assay [2]; 1.89 µM in assay [3]; 1.4 µM in assay [4]; 2.43 µM in assay [5]; 1.76 µM in assay [6]. Moreover, the TGI in assay [1] was 5.18 µM; in assay [2] it was 3.48 µM; in assay [3], 3.58 µM; in assay [4] it was 3.84 µM; in assay [5], 7.87 µM; in assay [6], 3.2 µM.
For `COCC[C@H]1CCC/C=C/[C@@H]2C[C@H](O)C[C@H]2[C@H](O)/C=C/C(=O)O1`, the 50% growth inhibitory concentration (GI50) in assay [1] is 0.132 µM; in assay [2] it was 0.079 µM; in assay [3], 0.0946 µM; in [4], 0.214 µM; in assay [5], 0.131 µM; in [6], 0.213 µM. In addition, the total growth inhibition concentration (TGI) in [1] was more than 90.9 µM; in assay [3] it was more than 100 µM; in [4], 0.888 µM; in [5], 0.322 µM; in assay [6], more than 100 µM.
Regarding `NS(=O)(=O)c1ccc(-c2ccc3c(NC(=O)C4CC4)n[nH]c3c2)cc1`, the GI50 in assay [1] was more than 25 µM; in assay [2] it was more than 25 µM; in [3], more than 25 µM; in assay [4] it was 16.6 µM; in assay [5] it was more than 25 µM; in [6], more than 25 µM. Further, the TGI in assay [1], in assay [2], in [3], in [4], in assay [5] and in assay [6] was more than 25 µM in each case.
Consider `COc1cc2ncnc(-n3ncc4cc(NC(=O)Nc5ccccc5)ccc43)c2cc1OC`, for which the GI50 is 1.55 µM in assay [1]; 1.88 µM in assay [2]; 1.3 µM in assay [3]; 0.707 µM in assay [4]; 1.39 µM in [5]; 0.23 µM in assay [6]. The total growth inhibition concentration (TGI) in assay [1] is 12 µM; in assay [2], 11.2 µM; in [4] it was 4.15 µM; in [5], 4.92 µM; in assay [6], 17.3 µM.
With `CC(C)c1ccc(-c2cc(-c3cn[nH]c3-c3ccccn3)ccn2)cc1`, the GI50 was 10.6 µM in assay [1]; 10.4 µM in assay [2]; 12 µM in [3]; 1.99 µM in [4]; more than 16.5 µM in assay [5]; 25 µM in [6]. In addition, the TGI in [1], in assay [2], in assay [3], in assay [4], in assay [5] and in assay [6] was more than 25 µM throughout.
`O=C(N/N=C/c1cc(Br)ccc1O)N/N=C/c1cc(Br)ccc1O`: the TGI in assay [7] was more than 100 µM; in [8], more than 100 µM; in assay [3], more than 100 µM; in [4], 6.05 µM; in assay [6], more than 100 µM; in [10], more than 100 µM.
As to `C=CCCCCC/C=C\[C@@H](O)C#CC#C/C=C/CO`, the GI50 is 49.9 µM in [1]; more than 100 µM in [2]; more than 100 µM in assay [3]; more than 100 µM in [4]; 40 µM in [5]; more than 100 µM in assay [6]. Further, the TGI in assay [1], in assay [2], in assay [3], in assay [4], in assay [5] and in [6] was more than 100 µM in each case.
